This is an account of results in ChEMBL document CHEMBL1124119, “(+/-)-4-tert-butyl-3-cyano-1-(4-ethynylphenyl)-2,6,7-trioxabi cyclo[2.2.2]octane: synthesis of a remarkably potent GABAA receptor antagonist” (J Med Chem, 1988).

The target in assay [1] is GABA-A receptor; anion channel. Description: In vitro inhibition of [35S]-TBPS binding to EDTA/water-dialyzed mouse brain P2 membranes. The format is tissue-based.
Assay [2] concerns the target Gamma-aminobutyric acid receptor subunit gamma-1 (Rattus norvegicus, UniProt P23574). Kind of assay: Inhibition of GABA-stimulated 36Cl- uptake by membrane vesicles of rat cerebral cortex. The format is functional, tissue-based.
Assay [3] concerns the target T1, GABA-A receptor; anion channel (Mus musculus) (UniProt Q8BHJ7+P26048+Q8QZW7+P50571+Q9R0Y8+P22723+A2AMW3+P62812+Q9JLF1+P26049+P22933+Q9D6F4+P63080+P27681+P16305). Description: Ex vivo inhibition of [35S]TBPS binding to mouse brain membranes in the presence of phenobarbital after 30 min. The format is tissue-based. The settings on record: Membrane.
Assay [4] has as its target GABA-A receptor; anion channel. Kind of assay: In vitro inhibition of [35S]TBPS binding to EDTA/water-dialyzed mouse brain P2 membranes. The format is tissue-based.
Assay [5] deals with T1, GABA-A receptor; anion channel (Mus musculus). Kind of assay: Ex vivo inhibition of [35S]TBPS binding to mouse brain membranes after 30 min. The assay is classed as tissue-based. Conditions: Membrane.
Assay [6] shares this target. Description: Ex vivo inhibition of [35S]TBPS binding to mouse brain membranes in the presence of Diazepam after 30 min. Conditions: Membrane. The format is tissue-based.

Gamma-aminobutyric acid receptor subunit gamma-1, sequence (P23574 whole entry): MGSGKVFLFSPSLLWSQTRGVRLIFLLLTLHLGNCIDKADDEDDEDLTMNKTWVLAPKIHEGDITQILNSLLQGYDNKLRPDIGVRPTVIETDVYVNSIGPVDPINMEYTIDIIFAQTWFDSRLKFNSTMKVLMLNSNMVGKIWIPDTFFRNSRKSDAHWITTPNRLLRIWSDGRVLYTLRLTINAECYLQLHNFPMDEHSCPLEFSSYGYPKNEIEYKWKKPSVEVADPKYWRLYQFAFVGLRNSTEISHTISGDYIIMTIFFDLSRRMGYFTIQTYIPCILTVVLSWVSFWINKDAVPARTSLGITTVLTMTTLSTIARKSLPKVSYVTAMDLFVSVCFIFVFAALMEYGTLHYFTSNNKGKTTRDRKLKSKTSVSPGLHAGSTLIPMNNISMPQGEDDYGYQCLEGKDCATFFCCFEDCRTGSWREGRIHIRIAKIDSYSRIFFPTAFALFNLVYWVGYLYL

What is called IC50 is the point on the concentration scale where inhibition reaches its midpoint. A high value points to weaker potency in that assay. `CC(C)(C)C12COC(c3ccc(C#N)cc3)(OC1)OC2`: the IC50 worked out at 0.0025 µM in assay [1] and 0.04 µM in assay [2].
Usually inhibition stands for the drop in the measured response relative to a control, in per cent. Consider `C#Cc1ccc(C23OCC(C(C)(C)C)(CO2)C(C#N)O3)cc1` (configuration not stated), for which the inhibition is 61% in assay [3], 68% in assay [5] and 59% in assay [6]. Further, the figures for the IC50 in assay [4] and in assay [2] were 0.00025 µM and 0.025 µM, respectively.
